# Laboratory results from the supplement of paper PMC10307832.
# Assays:
# Assay in all cases: relative viability (nuclei count vs DMSO), 5 days (fraction); higher = more cells survive
# BX 795 + Decitabine = compound: O=C(NCCCNc1nc(Nc2cccc(NC(=O)N3CCCC3)c2)ncc1I)c1cccs1 [BX 795] + Nc1ncn([C@H]2C[C@H](O)[C@@H](CO)O2)c(=O)n1 [Decitabine] (partner 2 µM)
# Summary of the method: (§1)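 A single step with final 0.05% Triton X-100, 1% formaldehyde and 1 ug/ml Hoechst fixed the cells and stained nuclei 5 days after treatment. Lung cancer cell lines in 1536-well plates had been treated by pin tool the day after seeding with one drug alone or a fixed anchor-drug dose plus five library-drug doses (not always all listed) in √10 steps, and nuclei were counted on 4× images. Relative viability is the ratio of nuclei in treated wells to nuclei in vehicle wells, taken as the median of duplicate plates.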
# BX 795 + Lapatinib = compound: O=C(NCCCNc1nc(Nc2cccc(NC(=O)N3CCCC3)c2)ncc1I)c1cccs1 [BX 795] + CS(=O)(=O)CCNCc1ccc(-c2ccc3ncnc(Nc4ccc(OCc5cccc(F)c5)c(Cl)c4)c3c2)o1 [Lapatinib] (partner 2 µM)
# Summary of the method: as §1
# BX 795 + Dasatinib = compound: O=C(NCCCNc1nc(Nc2cccc(NC(=O)N3CCCC3)c2)ncc1I)c1cccs1 [BX 795] + Cc1nc(Nc2ncc(C(=O)Nc3c(C)cccc3Cl)s2)cc(N2CCN(CCO)CC2)n1 [Dasatinib] (partner 0.075 µM)
# Summary of the method: as §1
# BX 795 + Vorinostat = compound: O=C(NCCCNc1nc(Nc2cccc(NC(=O)N3CCCC3)c2)ncc1I)c1cccs1 [BX 795] + O=C(CCCCCCC(=O)Nc1ccccc1)NO [Vorinostat] (partner 1 µM)
# Summary of the method: as §1
# BX 795 + Olaparib = compound: O=C(NCCCNc1nc(Nc2cccc(NC(=O)N3CCCC3)c2)ncc1I)c1cccs1 [BX 795] + O=C(c1cc(Cc2n[nH]c(=O)c3ccccc23)ccc1F)N1CCN(C(=O)C2CC2)CC1 [Olaparib] (partner 8 µM)
# Summary of the method: as §1
Cell Line,relative viability (BX 795 + Decitabine; first compound 0.04 µM),relative viability (BX 795 + Decitabine; first compound 0.1265 µM),relative viability (BX 795 + Decitabine; first compound 0.4 µM),relative viability (BX 795 + Decitabine; first compound 1.265 µM),relative viability (BX 795 + Lapatinib; first compound 0.04 µM),relative viability (BX 795 + Lapatinib; first compound 0.1265 µM),relative viability (BX 795 + Lapatinib; first compound 0.4 µM),relative viability (BX 795 + Lapatinib; first compound 1.265 µM),relative viability (BX 795 + Dasatinib; first compound 0.04 µM),relative viability (BX 795 + Dasatinib; first compound 0.1265 µM),relative viability (BX 795 + Dasatinib; first compound 0.4 µM),relative viability (BX 795 + Dasatinib; first compound 1.265 µM),relative viability (BX 795 + Vorinostat; first compound 0.04 µM),relative viability (BX 795 + Vorinostat; first compound 0.1265 µM),relative viability (BX 795 + Vorinostat; first compound 0.4 µM),relative viability (BX 795 + Vorinostat; first compound 1.265 µM),relative viability (BX 795 + Olaparib; first compound 0.04 µM),relative viability (BX 795 + Olaparib; first compound 0.1265 µM),relative viability (BX 795 + Olaparib; first compound 0.4 µM),relative viability (BX 795 + Olaparib; first compound 1.265 µM)
HCC-366,0.332,0.371,0.31,0.255,0.834,1.11,0.858,1.12,0.757,0.73,0.498,0.631,0.311,0.295,0.224,0.0717,0.336,0.404,0.175,0.252
HCC-827,0.416,0.327,0.387,0.303,0.186,0.18,0.215,0.191,0.334,0.375,0.307,0.414,0.756,0.689,0.901,0.79,0.448,0.621,0.525,0.639
HOP-62,0.241,0.223,0.295,0.296,1.09,1.1,1.29,1.07,0.659,0.797,0.668,0.576,0.807,0.638,0.546,0.456,0.419,0.265,0.266,0.605
IA-LM,–,–,–,–,0.94,0.994,1.5,0.544,–,–,–,–,0.79,1.06,0.992,0.892,0.783,0.797,0.768,0.757
LC-2-ad,0.777,0.835,0.74,0.611,0.89,0.962,0.7,0.274,0.416,0.497,0.391,0.285,0.755,0.759,0.595,0.37,0.756,0.456,0.685,0.608
LCLC-97TM1,0.268,0.264,0.367,0.227,1.05,0.842,0.926,0.362,0.719,0.888,0.764,0.76,0.774,0.725,0.768,0.468,0.507,0.404,0.409,0.266
LCLC-103H,0.714,0.656,0.863,0.631,–,–,–,–,0.55,0.481,0.553,0.412,0.675,0.811,0.699,0.695,0.794,0.73,0.761,0.763
LK-2,0.447,0.266,0.294,0.271,1.02,0.912,0.83,0.797,0.35,0.201,0.291,0.304,0.398,0.37,0.286,0.239,0.769,0.883,0.739,0.641
LOU-NH91,0.818,0.791,0.803,0.798,0.698,0.744,0.708,0.715,0.63,0.662,0.583,0.564,0.846,0.955,0.842,0.903,0.9,0.918,0.754,0.902
